One assay addresses T1, TYRO3 (Homo sapiens, UniProt Q06418).
T1 construct: purchased Life Technologies
T1 sequence (Q06418 41-890): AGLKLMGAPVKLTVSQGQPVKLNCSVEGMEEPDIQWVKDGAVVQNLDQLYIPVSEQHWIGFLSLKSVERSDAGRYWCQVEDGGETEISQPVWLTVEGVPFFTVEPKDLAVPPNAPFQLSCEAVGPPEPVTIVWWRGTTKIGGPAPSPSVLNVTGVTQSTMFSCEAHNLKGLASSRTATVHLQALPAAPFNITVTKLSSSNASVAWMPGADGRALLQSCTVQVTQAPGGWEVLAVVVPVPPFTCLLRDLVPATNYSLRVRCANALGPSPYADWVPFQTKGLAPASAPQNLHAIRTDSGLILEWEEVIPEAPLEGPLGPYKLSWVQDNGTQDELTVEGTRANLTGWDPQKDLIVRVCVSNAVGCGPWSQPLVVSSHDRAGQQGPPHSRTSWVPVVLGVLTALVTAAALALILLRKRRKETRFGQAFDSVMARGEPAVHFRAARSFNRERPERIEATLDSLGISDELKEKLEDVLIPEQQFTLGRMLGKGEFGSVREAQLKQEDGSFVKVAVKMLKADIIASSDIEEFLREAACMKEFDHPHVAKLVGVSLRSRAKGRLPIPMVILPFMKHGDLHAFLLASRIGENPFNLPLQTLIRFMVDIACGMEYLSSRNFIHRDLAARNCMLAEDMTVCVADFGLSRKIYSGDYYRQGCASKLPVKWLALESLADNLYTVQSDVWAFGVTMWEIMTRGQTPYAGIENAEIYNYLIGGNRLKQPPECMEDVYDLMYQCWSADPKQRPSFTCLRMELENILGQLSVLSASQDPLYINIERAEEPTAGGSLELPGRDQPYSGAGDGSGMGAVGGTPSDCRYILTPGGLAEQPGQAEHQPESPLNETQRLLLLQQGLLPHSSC
In words: LanthaScreen Eu kinase binding assay, TYRO3. As to conditions: Tracer 236. (TR-FRET usually uses a lanthanide donor and a delayed reading to cut background.)

In a further assay the target is T2, Axl (Homo sapiens, UniProt P30530).
T2 construct: purchased Life Technologies
T2 sequence (P30530 26-894): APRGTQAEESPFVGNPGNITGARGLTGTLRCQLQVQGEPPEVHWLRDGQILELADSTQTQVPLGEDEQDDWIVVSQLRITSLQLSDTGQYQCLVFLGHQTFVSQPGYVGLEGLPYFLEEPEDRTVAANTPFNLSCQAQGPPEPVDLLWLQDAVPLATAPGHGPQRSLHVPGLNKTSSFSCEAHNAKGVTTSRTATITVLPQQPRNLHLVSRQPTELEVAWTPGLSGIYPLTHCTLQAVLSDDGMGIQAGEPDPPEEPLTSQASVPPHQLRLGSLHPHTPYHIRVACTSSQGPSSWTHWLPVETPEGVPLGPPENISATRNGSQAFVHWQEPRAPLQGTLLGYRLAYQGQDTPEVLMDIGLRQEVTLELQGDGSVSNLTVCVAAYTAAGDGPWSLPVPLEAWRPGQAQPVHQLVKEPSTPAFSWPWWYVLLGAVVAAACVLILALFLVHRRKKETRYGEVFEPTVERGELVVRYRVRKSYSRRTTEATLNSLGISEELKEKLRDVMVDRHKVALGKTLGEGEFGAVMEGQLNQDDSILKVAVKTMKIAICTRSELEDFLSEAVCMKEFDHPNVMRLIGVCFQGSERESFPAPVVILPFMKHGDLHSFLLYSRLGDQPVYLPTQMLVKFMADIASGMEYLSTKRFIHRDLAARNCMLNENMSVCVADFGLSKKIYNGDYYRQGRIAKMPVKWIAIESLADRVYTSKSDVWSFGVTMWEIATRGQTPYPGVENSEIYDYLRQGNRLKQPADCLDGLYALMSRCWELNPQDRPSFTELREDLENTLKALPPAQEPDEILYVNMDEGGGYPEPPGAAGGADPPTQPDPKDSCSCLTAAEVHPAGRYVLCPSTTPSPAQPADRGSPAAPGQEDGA
Description: LanthaScreen Eu kinase binding assay, Axl. As to conditions: Tracer 236.

One may read the Kd as the concentration at which binding is half-saturated. The low end stands for tighter binding, the high end for weaker binding. With `CCOc1cn(Cc2cnccc2C)nc1C(=O)Nc1ccc(Oc2ccnc3cc(OC)c(OC)cc23)cc1F` [Compound 226], the Kd is 100 to 1000 nM at TYRO3 and below 100 nM on Axl.
The like results for `CCOc1cn(-c2cnccc2CCCN(C)C)nc1C(=O)Nc1ccc(Oc2ccnc3cc(OC)c(OC)cc23)cn1` [Compound 61] were, in that order, below 100 nM and below 100 nM.
Take `CCOc1cn(-c2cnccc2CO)nc1C(=O)Nc1ccc(Oc2ccnc3cc(OC)c(OC(F)(F)F)cc23)cn1` [Compound 233]: the dissociation constant Kd at TYRO3 and on Axl was below 100 nM in each case.
In the case of `CCOc1cn(-c2cc[nH]c2)nc1C(=O)Nc1ccc(Oc2ccnc3cc(OC)c(OC)cc23)cn1` [Compound 32], the Kd at TYRO3 and on Axl was below 100 nM in each case.
For the molecule `COc1cc2nccc(Oc3ccc(NC(=O)c4nn(-c5ccc(F)cc5C(C)=O)cc4OCC4CC4)nc3)c2cc1OC` [Compound 273], the figures for the Kd at TYRO3 and at Axl were 100 to 1000 nM and below 100 nM, respectively.
For `COc1cc2nccc(Oc3ccc(NC(=O)c4nn(-c5ccc(F)cc5Oc5ccccc5)cc4OCC4CC4)nc3)c2cc1OC` [Compound 272], in that order: 100 to 1000 nM and 100 to 1000 nM.
For `COc1cc2nccc(Oc3ccc(NC(=O)c4nn(-c5ccc(F)cc5N5CCOCC5)cc4OCC4CC4)nc3)c2cc1OC` [Compound 266], in that order: below 100 nM and below 100 nM.
The like results for `COc1cc2nccc(Oc3ccc(NC(=O)c4nn(-c5cnc(N)nc5)cc4OCC4COC4)nc3)c2cc1OC` [Compound 269] were, in that order, below 100 nM and below 100 nM.
For the molecule `CCOc1cn(C2CCCN(C(C)=O)C2)nc1C(=O)Nc1ccc(Oc2ccnc3cc(OC)c(OC)cc23)cc1F` (centres unmarked) [Compound 224], the figures for the Kd at TYRO3 and on Axl were 100 to 1000 nM and below 100 nM, respectively.
The like results for `CCOc1cn(-c2ccco2)nc1C(=O)Nc1ccc(Oc2ccnc3cc(OC)c(OC)cc23)cn1` [Compound 57] were, in that order, below 100 nM and below 100 nM.
Take `COc1cc2c(Oc3ccc(NC(=O)c4nn(-c5cnc(N)nc5)cc4OCC(F)(F)F)c(F)c3)ccnc2cc1OC(C)C` [Compound 243]: the Kd at TYRO3 and at Axl was below 100 nM each time.
Consider `COc1cc2nccc(Oc3ccc(NC(=O)c4nn(-c5ccc(F)cc5F)cc4OCC4CC4)nc3)c2cc1OC` [Compound 267], for which the Kd on TYRO3 and on Axl was below 100 nM each time.
As to `COc1cc2nccc(Oc3ccc(NC(=O)c4nn(-c5cnc(N)nc5)cc4OCC(F)(F)F)c(F)c3)c2cc1OC` [Compound 259], the equilibrium dissociation constant (Kd) at TYRO3 and at Axl was below 100 nM in each case.
On to `COc1cc2nccc(Oc3ccc(NC(=O)c4nn(-c5ccc(OC(F)(F)F)cc5Cl)cc4OCC4CC4)nc3)c2cc1OC` [Compound 244], for which the Kd on TYRO3 and on Axl was below 100 nM in each case.
Regarding `COc1cc2nccc(Oc3ccc(NC(=O)c4nn(-c5cnc(Cl)cn5)cc4OCC(F)(F)F)nc3)c2cc1OC` [Compound 236], the Kd at TYRO3 and at Axl was below 100 nM throughout.
Take `CCOc1cn(-c2cnc(N)nc2)nc1C(=O)Nc1ccc(Oc2ccnc3cc(OC)c(OC(F)(F)F)cc23)cc1F` [Compound 242]: the dissociation constant Kd on TYRO3 and on Axl was at least 1000 nM throughout.
Take `CCOc1cnn(-c2ccsc2)c1C(=O)Nc1ccc(Oc2ccnc3cc(OC)c(OC)cc23)cn1` [Compound 21]: the dissociation constant (Kd) is 100 to 1000 nM on TYRO3 and below 100 nM on Axl.
For `CCOc1cn(-c2cnccc2CO)nc1C(=O)Nc1ccc(Oc2ccnc3cc(OC(C)C)c(OC)cc23)cc1F` [Compound 231], in that order: below 100 nM and below 100 nM.
Take `CCOc1cn(C(C)(C)C(=O)NC)nc1C(=O)Nc1ccc(Oc2ccnc3cc(OC)c(OC)cc23)cn1` [Compound 68]: the dissociation constant Kd is at least 1000 nM on TYRO3 and below 100 nM on Axl.
For `CCOc1cn(-c2ccncc2Cl)nc1C(=O)Nc1ccc(Oc2ccnc3cc(OC)c(OC)cc23)cn1` [Compound 26], in that order: 100 to 1000 nM and below 100 nM.
For `CCOc1cn(-c2cnccc2CN(C)C)nc1C(=O)Nc1ccc(Oc2ccnc3cc(OC)c(OC)cc23)cn1` [Compound 73], in that order: 100 to 1000 nM and below 100 nM.
Regarding `COc1cc2nccc(Oc3ccc(NC(=O)c4nn(-c5cnc(N)nc5)cc4OC(F)F)nc3)c2cc1OC` [Compound 254], the Kd on TYRO3 was at least 1000 nM; on Axl it was below 100 nM.
With `CCOc1cn(C2CCCN(C(N)=O)C2)nc1C(=O)Nc1ccc(Oc2ccnc3cc(OC)c(OC)cc23)cc1F` (centres unmarked) [Compound 225], the values for the Kd at TYRO3 and on Axl were 100 to 1000 nM and below 100 nM, respectively.
Consider `COc1cc2nccc(Oc3ccc(NC(=O)c4nn(-c5cnc(N)nc5)cc4OCC(F)(F)F)nc3)c2cc1OC` [Compound 237], for which the Kd at TYRO3 and at Axl was below 100 nM throughout.
`COc1cc2nccc(Oc3ccc(NC(=O)c4nn(-c5cnc(N)nc5)cc4OCC4CNC4)nc3)c2cc1OC` [Compound 265]: the Kd is at least 1000 nM on TYRO3 and 100 to 1000 nM on Axl.
`CCOc1cnn(-c2cccs2)c1C(=O)Nc1ccc(Oc2ccnc3cc(OC)c(OC)cc23)cn1` [Compound 20]: the Kd was 100 to 1000 nM on TYRO3 and below 100 nM at Axl.
`CCOc1cn(CC2CCO2)nc1C(=O)Nc1ccc(Oc2ccnc3cc(OC)c(OC)cc23)cn1` (centres unmarked) [Compound 48]: the equilibrium dissociation constant (Kd) at TYRO3 and at Axl was below 100 nM in each case.
In the case of `CCOc1cn(-c2cnc(C#N)nc2)nc1C(=O)Nc1ccc(Oc2ccnc3cc(OC)c(OC)cc23)cn1` [Compound 55], the Kd on TYRO3 and at Axl was below 100 nM throughout.
As to `CCOc1cn(-c2ccoc2)nc1C(=O)Nc1ccc(Oc2ccnc3cc(OC)c(OC)cc23)cn1` [Compound 33], the Kd on TYRO3 and at Axl was below 100 nM throughout.
On to `COc1cc2c(Oc3ccc(NC(=O)c4nn(-c5cnc(N)cn5)cc4OCC(F)(F)F)c(F)c3)ccnc2cc1OC(C)C` [Compound 246], for which the Kd on TYRO3 and at Axl was below 100 nM in each case.
`COc1cc2c(Oc3ccc(NC(=O)c4nn(-c5cnc(N)cn5)cc4OCC(F)(F)F)nc3)ccnc2cc1OC(C)C` [Compound 253]: the Kd at TYRO3 and on Axl was below 100 nM each time.
Consider `CCOc1cn(-c2cccnc2Cl)nc1C(=O)Nc1ccc(Oc2ccnc3cc(OC)c(OC)cc23)cn1` [Compound 19], for which the Kd on TYRO3 and at Axl was below 100 nM each time.
Consider `COc1cc2nccc(Oc3ccc(NC(=O)c4nn(-c5ccc(F)cc5OC)cc4OCC4CC4)nc3)c2cc1OC` [Compound 264], for which the Kd on TYRO3 and at Axl was below 100 nM throughout.
Turning to `CCOc1cn(-c2ccn(C)c2)nc1C(=O)Nc1ccc(Oc2ccnc3cc(OC)c(OC)cc23)cn1` [Compound 56], the Kd on TYRO3 and on Axl was below 100 nM in each case.
In the case of `CCOc1cn(-c2ncco2)nc1C(=O)Nc1ccc(Oc2ccnc3cc(OC)c(OC)cc23)cn1` [Compound 59], the dissociation constant (Kd) at TYRO3 and at Axl was below 100 nM in each case.
On to `CCOc1cn(-c2ccc(OC)cc2)nc1C(=O)Nc1ccc(Oc2ccnc3cc(OC)c(OC)cc23)cn1` [Compound 1], for which the Kd at TYRO3 is 100 to 1000 nM; on Axl it was below 100 nM.
Turning to `CCC(C)Oc1cc2nccc(Oc3ccc(NC(=O)c4nn(-c5cccnc5)cc4OCC(F)(F)F)nc3)c2cc1OC` (centres unmarked) [Compound 234], the Kd on TYRO3 and on Axl was below 100 nM each time.

The values are drawn from patent US10934274B2, “Quinoline derivatives as TAM RTK inhibitors” (Qurient Co., Ltd., priority 2015, dated 2021).
